The subject of one test is HCC70 cells. In words: Breast cancer cell proliferation inhibitory activity, HCC70. The test is classed as cell-based. The conditions noted are these: Homo sapiens, 72 hours, CellTiter Glo, relative IC50. Here is the method:
(§1) Experiments were conducted using three types of breast cancer cell lines to measure the cell proliferation inhibitory ability of each Example compound. For HCC70 cells, 100 µL of cell suspension was dispensed into a 96-well plate using RPMI1640 (Invitrogen) medium containing 10 % FBS, followed by incubation in a cell incubator at 37 °C and 5 % CO2. For BT-20 cells, 100 µL of cell suspension was dispensed into a 96-well plate using EMEM (Invitrogen) medium containing 10 % FBS, followed by incubation in a cell incubator at 37 °C and 5 % CO2. For MDA-MB-436 cells, 100 µL of cell suspension was dispensed into a 96-well plate using L-15 (Invitrogen) medium containing 10 % FBS, followed by incubation in a cell incubator at 37 °C and 0 % CO2. The next day, each Example compound dissolved and diluted in DMSO across 9 concentration ranges and a DMSO control group were treated on the cells for 72 hours. After completion of the compound treatment, 100 µL of CellTiter Glo (Promega) reagent was added to each well of the 96-wellplate, followed by shaking for 10 minutes and standing at room temperature for 10 minutes. After inserting the 96-well plate into an Envision plate reader (PerkinElmer), luminescence signals were measured. Relative IC50 values were calculated by fitting a dose-response curve using XL fit (IDBS Ltd) software.
(§2) The breast cancer cell proliferation inhibitory activities of the Example compounds measured by the method described above were evaluated according to the following criteria, and the results are presented in Table 15.

For a further test, the system named is BT-20 cells. The test is described as follows: Breast cancer cell proliferation inhibitory activity, BT-20. Format: cell-based. Particulars: Homo sapiens, 72 hours, CellTiter Glo, relative IC50. Here is the method:
as §1, §2

Another test has as its system MDA-MB-436 cells. The test is described as follows: Breast cancer cell proliferation inhibitory activity, MDA-MB-436. The conditions noted are these: Homo sapiens, 72 hours, CellTiter Glo, relative IC50. Format: cell-based. How it is done: as §1, §2
The next test deals with AGS cells. The test is described as follows: Gastric cancer cell proliferation inhibitory activity (CellTiter Glo), AGS. The test is classed as cell-based. The conditions noted are these: 72 hours, relative IC50. How it is done: (§3) Experiments were performed using four types of gastric cancer cell lines (AGS, SNU-1, KATO-III, and MKN45) to measure the cell proliferation inhibitory ability of each Example compound. For AGS cells, 90 µL of cell suspension was dispensed into a 96-well plate using F-12K (Gibco) medium containing 10 % FBS, followed by incubation in a cell incubator at 37 °C and 5 % CO2. For SNU-1 and MKN45 cells, 90 µL of cell suspension was dispensed into a 96-well plate using RPMI1640 (Gibco) medium containing 10 % FBS, followed by incubation in a cell incubator at 37 °C and 5 % CO2. For KATO-III cells, 90 uL of cell suspension was dispensed into a 96-well plate using IMDM (Gibco) medium containing 10 % FBS, followed by incubation in a cell incubator at 37 °C and 5 % CO2. The next day, each Example compound dissolved and diluted in DMSO across 9 concentration ranges and a DMSO control group were added at 10 µL to each 96-well plate and treated for 72 hours. After completion of the compound treatment, 100 µL of CellTiter Glo (Promega) reagent was added to each well of the 96-well plate, followed by shaking for 10 minutes and standing at room temperature for 10 minutes. Luminescence signals were measured after inserting the 96-well plate into an Envision plate reader (PerkinElmer). Relative IC50 values were calculated by fitting a dose-response curve using XLfit (IDBS Ltd) software.
(§4) The gastric cancer cell proliferation inhibitory activities of the Example compounds measured by the method described above were evaluated according to the following criteria, and the results are presented in Table 16.

The test system of another test is SNU-1. The test is described as follows: Gastric cancer cell proliferation inhibitory activity (CellTiter Glo), SNU-1. The conditions noted are these: 72 hours, relative IC50. Format: cell-based. Here is the method:
as §3, §4

The subject of another test is KATO-III cells. In words: Gastric cancer cell proliferation inhibitory activity (CellTiter Glo), KATO-III. Format: cell-based. Particulars: 72 hours, relative IC50. How it is done:
as §3, §4

Another test deals with MKN45 cells. The test is described as follows: Gastric cancer cell proliferation inhibitory activity (CellTiter Glo), MKN45. The test is classed as cell-based. Particulars: 72 hours, relative IC50. How it is done:
as §3, §4

Another test concerns the target CDK13 (Homo sapiens, UniProt Q14004). In words: CDK13 kinase inhibitory activity assay (33P-ATP filter binding). The test is classed as biochemical. The conditions noted are these: kinase reaction 120 minutes, 33P-gamma-ATP; read-out: CDK13 IC50. The procedure, abridged: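 Compound in 9 concentrations pre-incubated 20 min with kinase and substrate, then ^33P-γ-ATP added and reacted 120 min at room temperature. Phosphorylated substrate captured on filter, washed with 0.75 % phosphoric acid and counted; activity as % of DMSO control, IC50 fitted.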

Test [1] has as its system MDA-MB-231 breast cancer cells. The test is described as follows: Proliferation inhibitory activity assay against MDA-MB-231 breast cancer cells. The test is classed as cell-based. Particulars: Homo sapiens, 72 hours, CellTiter Glo, relative IC50. The procedure, abridged:
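Cells grown in L-15 with 10% FBS at 37 °C, 0% CO2, then exposed next day to compounds at 9 concentrations (DMSO vehicle) for 72 h. Viability read by CellTiter Glo luminescence; relative IC50 from dose-response curve fit.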

Where only a bound is given, the exact number is not on record here.

CDK13, sequence (Q14004 whole entry, species assumed): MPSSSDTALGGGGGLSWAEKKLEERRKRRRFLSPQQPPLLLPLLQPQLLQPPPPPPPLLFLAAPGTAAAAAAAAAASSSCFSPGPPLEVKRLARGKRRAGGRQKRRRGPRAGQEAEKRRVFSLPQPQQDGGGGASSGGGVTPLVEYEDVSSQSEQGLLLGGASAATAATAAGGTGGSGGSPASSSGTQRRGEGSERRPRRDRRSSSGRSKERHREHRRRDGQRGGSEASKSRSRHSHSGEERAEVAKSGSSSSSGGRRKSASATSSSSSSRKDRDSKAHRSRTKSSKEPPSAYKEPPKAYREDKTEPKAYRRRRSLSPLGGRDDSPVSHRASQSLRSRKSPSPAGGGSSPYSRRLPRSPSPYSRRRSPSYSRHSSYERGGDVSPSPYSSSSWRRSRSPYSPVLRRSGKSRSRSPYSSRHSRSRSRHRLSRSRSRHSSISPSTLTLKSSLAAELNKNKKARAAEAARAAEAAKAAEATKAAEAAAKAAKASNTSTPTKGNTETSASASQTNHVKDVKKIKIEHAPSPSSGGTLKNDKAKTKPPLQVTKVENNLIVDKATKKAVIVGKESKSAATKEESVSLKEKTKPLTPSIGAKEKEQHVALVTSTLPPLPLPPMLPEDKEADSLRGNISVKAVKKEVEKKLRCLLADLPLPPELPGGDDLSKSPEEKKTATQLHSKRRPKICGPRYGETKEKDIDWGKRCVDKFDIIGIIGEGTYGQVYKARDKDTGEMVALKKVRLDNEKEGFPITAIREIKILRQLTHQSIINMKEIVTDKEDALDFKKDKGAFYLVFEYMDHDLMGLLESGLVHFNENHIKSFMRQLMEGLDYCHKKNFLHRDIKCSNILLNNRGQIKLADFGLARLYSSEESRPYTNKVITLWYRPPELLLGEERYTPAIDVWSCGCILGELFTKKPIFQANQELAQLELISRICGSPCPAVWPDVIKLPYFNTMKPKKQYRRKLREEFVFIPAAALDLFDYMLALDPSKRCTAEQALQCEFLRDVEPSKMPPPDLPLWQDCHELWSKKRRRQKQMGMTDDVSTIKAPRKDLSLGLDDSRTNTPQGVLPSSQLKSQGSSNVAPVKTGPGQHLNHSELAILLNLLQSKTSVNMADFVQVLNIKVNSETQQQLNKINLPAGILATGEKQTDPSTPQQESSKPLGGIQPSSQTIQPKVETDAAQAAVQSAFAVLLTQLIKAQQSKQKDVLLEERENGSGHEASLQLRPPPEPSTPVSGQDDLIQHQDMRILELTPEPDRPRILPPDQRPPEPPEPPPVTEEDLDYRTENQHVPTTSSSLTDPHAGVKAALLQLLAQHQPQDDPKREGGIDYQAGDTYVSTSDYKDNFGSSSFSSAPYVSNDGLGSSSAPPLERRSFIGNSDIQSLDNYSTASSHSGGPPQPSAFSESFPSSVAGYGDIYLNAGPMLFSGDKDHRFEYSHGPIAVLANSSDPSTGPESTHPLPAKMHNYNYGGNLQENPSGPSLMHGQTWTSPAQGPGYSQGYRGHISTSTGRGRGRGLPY
CDK13, sequence (O75909 whole entry partner, species assumed): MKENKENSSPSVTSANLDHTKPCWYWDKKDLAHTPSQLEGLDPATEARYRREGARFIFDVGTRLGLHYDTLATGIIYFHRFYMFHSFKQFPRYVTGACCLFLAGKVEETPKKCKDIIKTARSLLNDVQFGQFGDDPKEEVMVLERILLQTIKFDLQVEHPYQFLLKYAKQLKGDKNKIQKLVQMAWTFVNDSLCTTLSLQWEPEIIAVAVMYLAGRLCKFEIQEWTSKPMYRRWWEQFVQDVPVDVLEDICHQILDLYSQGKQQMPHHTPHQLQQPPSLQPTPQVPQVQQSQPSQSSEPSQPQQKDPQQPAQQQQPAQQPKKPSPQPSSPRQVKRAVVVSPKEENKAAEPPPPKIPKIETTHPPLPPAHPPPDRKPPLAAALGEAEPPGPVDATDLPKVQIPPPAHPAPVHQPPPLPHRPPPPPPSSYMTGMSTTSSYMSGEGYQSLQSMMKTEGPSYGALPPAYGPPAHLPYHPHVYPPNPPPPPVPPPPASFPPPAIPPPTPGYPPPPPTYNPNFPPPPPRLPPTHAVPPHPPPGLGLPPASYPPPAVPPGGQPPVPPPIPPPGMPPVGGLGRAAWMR

As for `O=C(c1cc(Cc2n[nH]c(=O)c3ccccc23)ccc1F)N1CCN(C(=O)C2CC2)CC1` [Olaparib, reference compound], the IC50 in the test with HCC70 cells, in the test on BT-20 cells and in the test with MDA-MB-436 cells was more than 1000 nM each time.
In the case of `N.N.[Cl][Pt][Cl]` [Cisplatin, reference compound], the IC50 in the test with AGS cells, in the test on SNU-1, with KATO-III cells and in the test with MKN45 cells was more than 1000 nM throughout.
As to `Cn1cc(-n2cnc3c(NCc4nc5cc(Cl)c(Cl)cc5[nH]4)nc(N4CCOCC4)nc32)cn1` [SR-4835, reference compound], the 50% inhibitory concentration (IC50) on CDK13 fell in the range of 100 to 500 nM; in [1] it was 50 to 500 nM; in the test on HCC70 cells, 50 to 1000 nM; in the test with BT-20 cells, 50 to 1000 nM; with MDA-MB-436 cells, 50 to 1000 nM.
With `CC(=O)c1c(C)c2cnc(Nc3ccc(N4CCNCC4)cn3)nc2n(C2CCCC2)c1=O` [Palbociclib, reference compound], the IC50 with HCC70 cells and in the test on BT-20 cells was more than 1000 nM each time.

The values above are taken from EP4813991A1 (iLeadBMS Co., Ltd., priority 2023, dated 2025).
